Values belong to the compound of their own block, whether it stands above or below them. Activity calls are given as the source filed them.
Experiments:
[1] = target: T1, Neuropeptide Y receptor type 1 (Homo sapiens, UniProt P25929); format: functional;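 note: HEK293 cells with a CNG channel challenged with NPY then isoproterenol; potency as antagonist that reverses NPY suppression of cAMP signal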
T1 sequence (P25929 whole entry): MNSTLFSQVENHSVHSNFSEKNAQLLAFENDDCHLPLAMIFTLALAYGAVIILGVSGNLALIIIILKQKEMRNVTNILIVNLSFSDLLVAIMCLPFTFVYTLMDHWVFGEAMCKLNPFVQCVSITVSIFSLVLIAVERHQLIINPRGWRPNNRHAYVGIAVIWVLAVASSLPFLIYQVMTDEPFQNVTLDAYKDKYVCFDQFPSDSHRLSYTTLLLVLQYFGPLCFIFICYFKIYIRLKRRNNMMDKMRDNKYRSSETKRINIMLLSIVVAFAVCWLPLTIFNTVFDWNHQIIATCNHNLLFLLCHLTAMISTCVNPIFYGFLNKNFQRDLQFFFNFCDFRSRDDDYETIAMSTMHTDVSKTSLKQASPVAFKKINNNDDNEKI

[2] = target: T2, Neuropeptide Y receptor type 2 (Homo sapiens, UniProt P49146); format: functional, cell-based;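 note: HEK293 cells expressing the receptor and a CNG channel; stimulus was NPY near EC95 followed by isoproterenol to raise cAMP; antagonist potency measured as restoring cAMP signal that NPY suppresses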
T2 sequence (P49146 whole entry): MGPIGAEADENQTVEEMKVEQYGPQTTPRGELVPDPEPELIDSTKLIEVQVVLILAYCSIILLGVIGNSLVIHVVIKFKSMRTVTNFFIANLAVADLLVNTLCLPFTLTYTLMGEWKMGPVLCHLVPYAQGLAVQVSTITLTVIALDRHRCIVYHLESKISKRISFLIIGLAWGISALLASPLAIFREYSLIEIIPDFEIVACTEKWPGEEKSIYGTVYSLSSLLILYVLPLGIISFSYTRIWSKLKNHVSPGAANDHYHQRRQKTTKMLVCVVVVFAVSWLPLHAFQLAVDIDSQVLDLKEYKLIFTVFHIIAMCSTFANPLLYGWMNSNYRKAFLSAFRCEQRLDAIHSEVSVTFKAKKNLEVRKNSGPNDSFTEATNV

[3] = target: Voltage-gated inwardly rectifying potassium channel KCNH2 (Homo sapiens, UniProt Q12809); experiment: hERG protection from proarrhythmic block, potency, dose response, cell-based, thallium flux (AID 2121); format: ADME
Chain of Voltage-gated inwardly rectifying potassium channel KCNH2 (Q12809 whole entry): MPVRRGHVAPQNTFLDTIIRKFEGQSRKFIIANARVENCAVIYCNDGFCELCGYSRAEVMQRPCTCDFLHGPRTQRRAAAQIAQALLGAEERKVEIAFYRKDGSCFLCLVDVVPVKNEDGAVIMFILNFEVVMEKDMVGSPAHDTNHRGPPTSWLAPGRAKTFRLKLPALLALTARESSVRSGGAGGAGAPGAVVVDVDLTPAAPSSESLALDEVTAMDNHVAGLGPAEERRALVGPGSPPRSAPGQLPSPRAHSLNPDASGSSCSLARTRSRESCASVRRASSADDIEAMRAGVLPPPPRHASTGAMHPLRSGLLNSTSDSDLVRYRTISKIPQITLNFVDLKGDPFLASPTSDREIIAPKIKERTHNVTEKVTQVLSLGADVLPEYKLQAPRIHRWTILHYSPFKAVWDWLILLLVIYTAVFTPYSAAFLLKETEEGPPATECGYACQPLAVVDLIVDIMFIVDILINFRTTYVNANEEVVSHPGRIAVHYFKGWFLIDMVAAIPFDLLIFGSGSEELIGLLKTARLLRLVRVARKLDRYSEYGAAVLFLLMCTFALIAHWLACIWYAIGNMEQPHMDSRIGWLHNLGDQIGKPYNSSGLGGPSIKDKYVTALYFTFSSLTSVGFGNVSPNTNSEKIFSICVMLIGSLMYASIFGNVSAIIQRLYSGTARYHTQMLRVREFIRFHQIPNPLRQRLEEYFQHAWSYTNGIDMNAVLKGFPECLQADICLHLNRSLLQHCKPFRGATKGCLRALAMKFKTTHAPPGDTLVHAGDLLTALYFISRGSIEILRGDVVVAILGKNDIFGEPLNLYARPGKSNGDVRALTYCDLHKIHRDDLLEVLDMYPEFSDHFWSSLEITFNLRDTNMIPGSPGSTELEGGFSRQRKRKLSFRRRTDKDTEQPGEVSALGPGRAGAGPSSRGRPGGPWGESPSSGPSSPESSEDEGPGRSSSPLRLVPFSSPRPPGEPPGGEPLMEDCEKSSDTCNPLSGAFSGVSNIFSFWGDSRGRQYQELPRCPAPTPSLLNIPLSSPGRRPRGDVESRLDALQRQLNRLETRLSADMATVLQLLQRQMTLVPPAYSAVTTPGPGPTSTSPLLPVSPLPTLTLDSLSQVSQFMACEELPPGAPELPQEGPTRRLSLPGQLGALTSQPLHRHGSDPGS

Aspartyl aminopeptidase = target: T3, Aspartyl aminopeptidase (Plasmodium falciparum 3D7, UniProt Q8I2J3)
T3 sequence (Q8I2J3 whole entry): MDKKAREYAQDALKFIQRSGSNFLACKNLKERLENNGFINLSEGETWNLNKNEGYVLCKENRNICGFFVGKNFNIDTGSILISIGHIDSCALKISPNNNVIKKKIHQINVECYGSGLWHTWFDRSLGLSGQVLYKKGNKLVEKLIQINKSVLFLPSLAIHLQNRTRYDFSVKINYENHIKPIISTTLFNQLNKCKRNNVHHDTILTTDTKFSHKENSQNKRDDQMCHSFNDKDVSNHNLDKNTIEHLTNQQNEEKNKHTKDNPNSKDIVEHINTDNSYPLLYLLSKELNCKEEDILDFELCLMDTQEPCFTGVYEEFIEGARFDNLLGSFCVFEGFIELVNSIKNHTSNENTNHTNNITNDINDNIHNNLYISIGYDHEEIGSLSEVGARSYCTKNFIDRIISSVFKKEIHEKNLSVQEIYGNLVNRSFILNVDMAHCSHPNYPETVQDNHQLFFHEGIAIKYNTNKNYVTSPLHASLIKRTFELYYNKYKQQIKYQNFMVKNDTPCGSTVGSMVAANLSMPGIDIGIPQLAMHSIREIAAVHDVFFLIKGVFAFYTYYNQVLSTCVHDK

Procathepsin L = Procathepsin L (Homo sapiens, UniProt P07711)
Chain of Procathepsin L (P07711 whole entry): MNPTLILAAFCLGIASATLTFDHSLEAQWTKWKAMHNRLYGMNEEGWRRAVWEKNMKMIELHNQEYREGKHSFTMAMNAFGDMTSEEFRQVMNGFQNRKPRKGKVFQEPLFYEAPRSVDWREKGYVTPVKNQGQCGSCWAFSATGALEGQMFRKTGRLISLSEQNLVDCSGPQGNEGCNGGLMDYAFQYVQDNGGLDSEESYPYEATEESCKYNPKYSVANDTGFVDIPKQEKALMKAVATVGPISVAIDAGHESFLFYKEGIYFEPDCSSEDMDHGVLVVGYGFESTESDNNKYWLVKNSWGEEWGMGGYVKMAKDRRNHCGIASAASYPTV

Protein skinhead-1 = target: T4, Protein skinhead-1 (Caenorhabditis elegans, UniProt P34707); format: functional
T4 sequence (P34707 whole entry): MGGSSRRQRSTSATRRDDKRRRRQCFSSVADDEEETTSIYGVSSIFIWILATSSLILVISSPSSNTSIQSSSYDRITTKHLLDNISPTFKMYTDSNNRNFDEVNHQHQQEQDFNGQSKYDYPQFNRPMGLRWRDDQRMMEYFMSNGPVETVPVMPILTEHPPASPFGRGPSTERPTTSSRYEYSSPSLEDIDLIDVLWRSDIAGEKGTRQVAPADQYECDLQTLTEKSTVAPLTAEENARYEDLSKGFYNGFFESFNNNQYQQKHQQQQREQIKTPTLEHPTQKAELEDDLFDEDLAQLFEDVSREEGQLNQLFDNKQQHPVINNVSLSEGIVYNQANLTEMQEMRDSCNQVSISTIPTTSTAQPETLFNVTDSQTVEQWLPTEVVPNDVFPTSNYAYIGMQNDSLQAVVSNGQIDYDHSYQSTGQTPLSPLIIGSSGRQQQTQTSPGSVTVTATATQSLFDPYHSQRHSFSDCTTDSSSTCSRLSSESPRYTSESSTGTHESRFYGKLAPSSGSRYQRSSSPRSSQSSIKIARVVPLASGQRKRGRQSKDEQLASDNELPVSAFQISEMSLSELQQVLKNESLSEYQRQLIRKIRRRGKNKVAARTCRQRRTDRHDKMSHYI

Mucolipin-3 = target: T5, Mucolipin-3 (Homo sapiens, UniProt Q8TDD5); experiment: Dose response cell-based high-throughput screening assay for agonists of the transient receptor potential channel ML3 (TRPML3). [Related pubchem assays: 1526, 1424, 1448 ]; format: functional
T5 sequence (Q8TDD5 whole entry): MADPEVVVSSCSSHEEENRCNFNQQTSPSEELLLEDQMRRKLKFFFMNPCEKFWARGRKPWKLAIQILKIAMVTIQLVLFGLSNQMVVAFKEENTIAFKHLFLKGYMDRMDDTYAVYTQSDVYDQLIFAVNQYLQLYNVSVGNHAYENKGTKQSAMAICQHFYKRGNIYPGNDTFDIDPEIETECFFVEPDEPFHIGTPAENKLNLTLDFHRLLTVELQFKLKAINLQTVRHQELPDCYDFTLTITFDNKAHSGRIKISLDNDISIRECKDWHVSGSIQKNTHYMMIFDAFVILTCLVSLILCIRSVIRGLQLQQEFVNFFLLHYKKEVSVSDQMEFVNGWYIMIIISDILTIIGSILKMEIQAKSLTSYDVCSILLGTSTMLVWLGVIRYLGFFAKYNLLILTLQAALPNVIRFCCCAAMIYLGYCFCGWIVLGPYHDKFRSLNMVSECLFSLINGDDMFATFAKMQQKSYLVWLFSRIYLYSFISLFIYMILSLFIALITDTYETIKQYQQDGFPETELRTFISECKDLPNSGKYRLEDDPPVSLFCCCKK

Ion channel NompC = Ion channel NompC (Danio rerio, UniProt Q7T1G6); experiment: Fluorescence counterscreen assay for TRPML3 agonists: dose response cell-based high-throughput screening assay to identify agonists of the transient receptor potential channel N1 (TRPN1). [Related pubchem assays: 1526, 1424, 1448 ]; format: functional
Chain of Ion channel NompC (Q7T1G6 whole entry): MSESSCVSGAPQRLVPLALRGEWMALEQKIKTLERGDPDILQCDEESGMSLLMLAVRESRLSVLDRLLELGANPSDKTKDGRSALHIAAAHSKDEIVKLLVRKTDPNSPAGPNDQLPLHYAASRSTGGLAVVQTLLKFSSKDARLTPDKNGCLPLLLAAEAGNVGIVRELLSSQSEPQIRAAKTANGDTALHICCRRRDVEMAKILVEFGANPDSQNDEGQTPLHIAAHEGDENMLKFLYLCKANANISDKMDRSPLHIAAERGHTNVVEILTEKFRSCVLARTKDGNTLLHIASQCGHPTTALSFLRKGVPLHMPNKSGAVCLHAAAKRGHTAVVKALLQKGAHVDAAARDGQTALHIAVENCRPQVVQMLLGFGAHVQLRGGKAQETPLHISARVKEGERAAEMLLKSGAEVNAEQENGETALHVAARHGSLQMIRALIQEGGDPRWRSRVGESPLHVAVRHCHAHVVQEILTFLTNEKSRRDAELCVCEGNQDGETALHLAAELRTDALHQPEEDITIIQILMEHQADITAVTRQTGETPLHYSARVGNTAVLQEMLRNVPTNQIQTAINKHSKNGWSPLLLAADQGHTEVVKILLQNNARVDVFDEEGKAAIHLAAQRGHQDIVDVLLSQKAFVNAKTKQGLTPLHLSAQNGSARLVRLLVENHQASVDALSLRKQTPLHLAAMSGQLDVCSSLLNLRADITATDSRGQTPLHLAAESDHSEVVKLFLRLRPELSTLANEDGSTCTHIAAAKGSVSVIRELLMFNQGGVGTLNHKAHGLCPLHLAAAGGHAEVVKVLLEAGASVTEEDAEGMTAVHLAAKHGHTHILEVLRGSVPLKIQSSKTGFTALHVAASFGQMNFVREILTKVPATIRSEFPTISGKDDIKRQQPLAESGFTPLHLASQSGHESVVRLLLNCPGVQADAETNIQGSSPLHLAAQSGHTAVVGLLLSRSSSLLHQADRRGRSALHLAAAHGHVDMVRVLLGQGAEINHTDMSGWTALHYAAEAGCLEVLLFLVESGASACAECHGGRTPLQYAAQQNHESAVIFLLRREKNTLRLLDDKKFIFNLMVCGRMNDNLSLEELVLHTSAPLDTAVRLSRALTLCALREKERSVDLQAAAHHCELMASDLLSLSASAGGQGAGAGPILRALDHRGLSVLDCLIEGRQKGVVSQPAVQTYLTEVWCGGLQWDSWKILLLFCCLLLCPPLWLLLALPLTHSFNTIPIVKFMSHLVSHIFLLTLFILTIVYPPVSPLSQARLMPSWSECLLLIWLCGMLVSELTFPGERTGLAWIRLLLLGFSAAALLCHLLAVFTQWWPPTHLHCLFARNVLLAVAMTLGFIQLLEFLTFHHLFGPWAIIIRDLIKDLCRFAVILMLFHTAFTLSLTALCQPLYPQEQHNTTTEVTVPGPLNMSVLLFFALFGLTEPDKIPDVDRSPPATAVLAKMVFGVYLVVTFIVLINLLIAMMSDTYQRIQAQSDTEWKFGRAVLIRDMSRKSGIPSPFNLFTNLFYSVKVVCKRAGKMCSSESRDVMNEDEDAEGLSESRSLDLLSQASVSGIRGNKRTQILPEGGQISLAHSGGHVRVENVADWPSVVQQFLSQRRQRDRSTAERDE

[4] = cytotoxicity in HPDE-C7 cells, cell-based, fluorescence, HTS (AID 430); format: functional; details: Homo sapiens
[5] = cytotoxicity in KRAS-transformed pancreatic duct cells, primary screen, cell-based, fluorescence, HTS (AID 431); format: functional; details: Homo sapiens;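 note: cell line used: HPDE-C7K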
Protein Tat = target: T6, Protein Tat (Human immunodeficiency virus type 1 group M subtype B (isolate HXB2)(HIV-1), UniProt P04608); format: functional;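 note: tat binding to TAR RNA read out by fluorescence polarization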
T6 sequence (P04608 whole entry): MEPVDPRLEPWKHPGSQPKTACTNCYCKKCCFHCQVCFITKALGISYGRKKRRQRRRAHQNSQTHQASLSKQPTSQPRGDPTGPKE

[6] = target: T7, Calpain-2 catalytic subunit (Sus scrofa, UniProt P43367); experiment: pig calpain II inhibitor potency, dose response, biochemical, fluorogenic peptide substrate (AID 1420); format: functional
T7 sequence (P43367 whole entry): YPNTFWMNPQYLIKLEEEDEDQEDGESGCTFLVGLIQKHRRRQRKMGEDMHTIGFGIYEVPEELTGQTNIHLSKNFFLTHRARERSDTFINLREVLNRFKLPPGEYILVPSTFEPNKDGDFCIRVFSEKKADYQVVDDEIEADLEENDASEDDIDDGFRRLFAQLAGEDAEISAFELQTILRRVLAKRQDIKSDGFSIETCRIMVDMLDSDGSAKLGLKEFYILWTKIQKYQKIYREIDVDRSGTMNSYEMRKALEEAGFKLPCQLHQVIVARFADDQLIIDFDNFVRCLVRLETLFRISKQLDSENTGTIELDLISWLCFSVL

[7] = target: T8, Corticotropin-releasing factor receptor 2/Corticotropin-releasing factor-binding protein (Homo sapiens, UniProt P24387+Q13324); experiment: Dose Response confirmation of uHTS hits for small molecule antagonists of the CRF-binding protein and CRF-R2 receptor complex.; format: functional; details: read-out: IC50_Mean
T8 sequence (Q13324 whole entry): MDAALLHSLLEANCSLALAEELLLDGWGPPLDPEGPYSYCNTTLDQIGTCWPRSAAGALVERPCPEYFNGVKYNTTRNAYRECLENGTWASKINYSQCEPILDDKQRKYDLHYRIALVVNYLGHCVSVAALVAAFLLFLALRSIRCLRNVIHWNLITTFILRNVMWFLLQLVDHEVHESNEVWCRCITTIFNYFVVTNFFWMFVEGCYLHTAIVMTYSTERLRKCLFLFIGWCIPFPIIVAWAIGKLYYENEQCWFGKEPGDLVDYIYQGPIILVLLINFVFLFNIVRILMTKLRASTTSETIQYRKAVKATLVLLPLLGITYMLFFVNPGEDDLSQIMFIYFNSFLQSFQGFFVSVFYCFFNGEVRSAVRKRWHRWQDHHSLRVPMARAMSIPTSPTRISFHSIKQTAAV
T8 sequence (P24387 whole entry): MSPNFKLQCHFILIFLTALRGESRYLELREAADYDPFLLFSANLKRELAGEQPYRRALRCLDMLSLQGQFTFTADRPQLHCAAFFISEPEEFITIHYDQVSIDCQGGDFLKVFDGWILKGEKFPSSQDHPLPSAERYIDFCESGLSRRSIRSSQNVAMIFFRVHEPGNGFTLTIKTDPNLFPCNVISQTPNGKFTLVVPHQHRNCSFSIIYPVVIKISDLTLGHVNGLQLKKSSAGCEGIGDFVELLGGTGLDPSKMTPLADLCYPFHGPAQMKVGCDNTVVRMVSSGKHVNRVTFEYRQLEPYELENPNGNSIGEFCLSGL

[8] = target: T8, Corticotropin-releasing factor receptor 2/Corticotropin-releasing factor-binding protein; experiment: activators of CRF receptor 2 with binding protein – uHTS hits, confirmation (AID 602473); format: functional; details: read-out: EC50_Mean
Large T antigen = Large T antigen (Simian virus 40, UniProt P03070); format: functional, Betapolyomavirus macacae;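 note: Confirmatory-stage PubChem screen for compounds that inhibit SV40 T antigen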
Chain of Large T antigen (P03070 whole entry): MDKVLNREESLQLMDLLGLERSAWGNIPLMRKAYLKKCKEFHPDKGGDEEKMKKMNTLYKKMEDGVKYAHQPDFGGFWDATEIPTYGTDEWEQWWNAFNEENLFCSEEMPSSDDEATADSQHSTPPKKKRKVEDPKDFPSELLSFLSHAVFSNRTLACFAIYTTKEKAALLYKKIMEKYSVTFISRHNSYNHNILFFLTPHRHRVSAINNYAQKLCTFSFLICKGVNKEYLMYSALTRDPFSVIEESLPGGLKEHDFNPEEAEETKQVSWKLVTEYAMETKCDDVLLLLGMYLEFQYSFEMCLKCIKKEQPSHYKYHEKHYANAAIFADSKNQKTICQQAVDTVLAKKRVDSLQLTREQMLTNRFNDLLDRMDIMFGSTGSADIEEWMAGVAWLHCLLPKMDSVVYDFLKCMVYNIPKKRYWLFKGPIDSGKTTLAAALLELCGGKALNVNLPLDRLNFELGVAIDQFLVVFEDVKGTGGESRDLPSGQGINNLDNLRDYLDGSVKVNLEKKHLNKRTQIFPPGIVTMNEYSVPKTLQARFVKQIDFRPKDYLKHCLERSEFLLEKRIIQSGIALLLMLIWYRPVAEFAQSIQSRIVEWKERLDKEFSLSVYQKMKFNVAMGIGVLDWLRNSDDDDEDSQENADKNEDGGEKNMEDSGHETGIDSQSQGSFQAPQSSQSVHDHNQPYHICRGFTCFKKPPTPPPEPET

[9] = THP-1 cell cytotoxicity, dose response, cytotoxicity control for Vif-APOBEC3G degradation inhibitor project, THP-1 cells (AID 1117359); format: functional; details: Human immunodeficiency virus 1, THP-1
[10] = P. falciparum 3D7-ScDHODH growth inhibitors, dose response, SYBR Green, dry powder samples (AID 1159570); format: functional, cell-based;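 note: parasite growth measured after 72 hours of compound exposure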
[11] = HepG2 cell cytotoxicity, dose response, cytotoxicity control, plate reader, dry powder samples (AID 1159569); format: functional, cell-based;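 note: inhibitor potency with signal falling toward the positive control level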
[12] = P. falciparum Dd2 growth inhibitors, dose response, SYBR Green, cherry-picked samples (AID 1159567); format: functional, cell-based
[13] = P. falciparum Dd2 growth inhibitors, dose response, SYBR Green, dry powder samples (AID 1159566); format: functional, cell-based;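 note: potency for growth inhibition with lower SYBR green DNA signal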
[14] = HepG2 cell cytotoxicity, dose response, cytotoxicity control, cherry-picked samples (AID 1159577); format: functional, cell-based
[15] = P. falciparum ATP4 D1247Y mutant growth inhibitors, dose response, NITD609-resistant line, SYBR Green, dry powder (AID 1159571); format: functional, cell-based;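 note: parasites synchronized at ring stage by sorbitol before testing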

IC50 [1]: > 35 µM (not active)
IC50 [2]: 20.6 µM (not active)
Structure (SMILES): CC(/C=C1\SC(=S)N(NC(=O)c2ccc(C)cc2)C1=O)=C\c1ccccc1

IC50 [1]: 13.7 µM (not active)
IC50 [2]: 7.94 µM (active)
Structure (SMILES): CCCCCCNS(=O)(=O)c1ccc(NC(=O)C2CCCO2)cc1 (configuration not stated)

Structure (SMILES): CC(=O)c1c(N)nc(-c2ccccc2)nc1S
EC50 [3]: 11 µM (active)

IC50 (Aspartyl aminopeptidase): 1.76 µM (active)
IC50 (Procathepsin L): > 59.6 µM (not active)
IC50 (Protein skinhead-1): > 100 µM (inactive)
Structure (SMILES): O=C(/C=C/c1ccccc1)Nn1cnnc1

IC50 (Aspartyl aminopeptidase): 1.81 µM (active)
IC50 (Procathepsin L): > 59.6 µM (not active)
Structure (SMILES): O=C(CNC(=O)c1ccccc1)NCCc1ccc(O)c(O)c1

EC50 (Mucolipin-3): > 29.9 µM (not active)
EC50 (Ion channel NompC): > 29.9 µM (not active)
Structure (SMILES): Cc1ccc(S(=O)(=O)c2c(C)nn(C(C)(C)C)c2OC(=O)C2CCCC2)cc1

Structure (SMILES): OC(COCc1ccc(Cl)cc1)CN1CCN(CC(O)COCc2ccc(Cl)cc2)CC1 (configuration not stated)
EC50 [4]: > 20 µM (not active)
EC50 [5]: > 20 µM (not active)

Structure (SMILES): COc1cccc(C(C#N)N2CCCCC2)c1O (configuration not stated)
IC50 (Protein Tat): > 100 µM (active)

EC50 (Mucolipin-3): 3.92 µM (active)
EC50 (Ion channel NompC): > 29.9 µM (not active)
Structure (SMILES): COc1ccc(S(=O)(=O)N2CCCCCC2)cc1N(C)S(=O)(=O)c1ccccc1

Structure (SMILES): Brc1ccc(CSc2nnc(Cc3c[nH]c4ccccc34)o2)cc1
EC50 [4]: 14.2 µM (active)
EC50 [5]: 13.4 µM (active)
IC50 [6]: 5.75 µM (not active)
IC50 [7]: > 47.1 µM (inactive)
EC50 [8]: > 53 µM (inactive)

Structure (SMILES): C=CCc1cccc(CNc2nc3ccccc3n2CC)c1O
EC50 [4]: > 20 µM (not active)
EC50 [5]: > 20 µM (not active)

IC50 (Large T antigen): 10.2 µM (active)
IC50 (Protein Tat): 14 µM (inconclusive)
Structure (SMILES): CCOC(=O)N1CCN(c2ccc(O)cc2)CC1
CC50 [9]: > 40 µM (active)

IC50 [1]: 10.4 µM (not active)
IC50 [2]: 3.55 µM (active)
Structure (SMILES): COc1ccc(/C=N/NC(=O)CN(CCc2ccccc2)S(=O)(=O)c2ccc(NC(C)=O)cc2)cc1OC

IC50 (Aspartyl aminopeptidase): 2.35 µM (active)
IC50 (Procathepsin L): > 59.6 µM (not active)
Structure (SMILES): COc1cc(Br)cc(/C=N/c2nc[nH]n2)c1O

Structure (SMILES): CO[C@@H]1CN(C)C(=O)c2ccc(NC(=O)c3nc4ccccc4s3)cc2OC[C@@H](C)N(Cc2ccncc2)C[C@H]1C
AC50 [10]: 1.39 µM (active)
AC50 [11]: 26.7 µM (active)
AC50 [12]: 2.62 µM (active)
AC50 [13]: 1.33 µM (active)
AC50 [14]: > 39 µM (inactive)
AC50 [15]: 1.34 µM (active)

Source: ChEMBL document CHEMBL1201862, “PubChem BioAssay data set” (2004)
